Experiments:
Assay type in all cases: functional
[1] = system: OVCAR-5; test: Growth inhibitory activity against Ovarian cancer OVCAR-5 cell line was determined; conditions: Homo sapiens
[2] = system: HOP-62; test: Growth inhibitory activity against non small cell lung cancer HOP-62 cell line was determined; conditions: Homo sapiens
[3] = system: U-251; test: Growth inhibitory activity against CNS cancer U251 cell line was determined; conditions: Homo sapiens
[4] = system: MDA-MB-231; test: Growth inhibitory activity against Breast cancer MDA-MB-231/ATCC cell line was determined; conditions: Homo sapiens
[5] = system: SNB-19; test: Growth inhibitory activity against CNS cancer SNB-19 cell line was determined; conditions: Homo sapiens
[6] = system: OVCAR-4; test: Growth inhibitory activity against Ovarian cancer OVCAR-4 cell line was determined; conditions: Homo sapiens
[7] = system: ACHN; test: Growth inhibitory activity against Renal cancer ACHN cell line was determined; conditions: Homo sapiens
[8] = system: SR; test: Growth inhibitory activity against Leukemia SR cell line was determined; conditions: Homo sapiens
[9] = system: HCT-15; test: Growth inhibitory activity against colon cancer HCT-15 cell line was determined; conditions: Homo sapiens
[10] = system: MOLT-4; test: Growth inhibitory activity against Leukemia MOLT-4 cell line was determined; conditions: Homo sapiens
[11] = system: SF-539; test: Growth inhibitory activity against CNS cancer SF-539 cell line was determined; conditions: Homo sapiens
[12] = system: EKVX; test: Growth inhibitory activity against non small cell lung cancer EKVX cell line was determined; conditions: Homo sapiens
[13] = system: RXF 393; test: Growth inhibitory activity against Renal cancer RXF 393 cell line was determined; conditions: Homo sapiens
[14] = system: HCT-116; test: Growth inhibitory activity against colon cancer HCT116 cell line was determined; conditions: Homo sapiens
[15] = system: NCI-H460; test: Growth inhibitory activity against non small cell lung cancer H460 cell line was determined; conditions: Homo sapiens
[16] = system: K562; test: Growth inhibitory activity against Leukemia K-562 cell line was determined; conditions: Homo sapiens
[17] = system: CCRF-CEM; test: Growth inhibitory activity against Leukemia CCRF-CEM cell line was determined; conditions: Homo sapiens
[18] = system: COLO 205; test: Growth inhibitory activity against colon cancer COLO 205 cell line was determined; conditions: Homo sapiens
[19] = system: M14; test: Growth inhibitory activity against Melanoma M14 cell line was determined; conditions: Homo sapiens
[20] = system: A498; test: Growth inhibitory activity against Renal cancer A498 cell line was determined; conditions: Homo sapiens
[21] = system: KM12; test: Growth inhibitory activity against colon cancer KM12 cell line was determined; conditions: Homo sapiens
[22] = system: CAKI-1; test: Growth inhibitory activity against Renal cancer CAKI-1 cell line was determined; conditions: Homo sapiens
[23] = system: 786-0; test: Growth inhibitory activity against Renal cancer 786-0 cell line was determined; conditions: Homo sapiens
[24] = system: SF-268; test: Growth inhibitory activity against CNS cancer SF-268 cell line was determined; conditions: Homo sapiens
[25] = system: MCF7; test: In vitro percent of proliferation of vehicle treated MCF-7 human breast cell lines was determined at 0.0010 M concentration
[26] = system: SF-295; test: Growth inhibitory activity against CNS cancer SF-295 cell line was determined; conditions: Homo sapiens
[27] = system: TK-10; test: Growth inhibitory activity against Renal cancer TK-10 cell line was determined; conditions: Homo sapiens
[28] = system: HL-60; test: Growth inhibitory activity against Leukemia HL-60(TB) cell line was determined; conditions: Homo sapiens
[29] = system: BT-549; test: Growth inhibitory activity against Breast cancer BT-549 cell line was determined; conditions: Homo sapiens
[30] = system: SK-MEL-5; test: Growth inhibitory activity against Melanoma SK-MEL-5 cell line was determined; conditions: Homo sapiens
[31] = system: NCI-H522; test: Growth inhibitory activity against non small cell lung cancer H522 cell line was determined; conditions: Homo sapiens
[32] = system: Hs-578T; test: Growth inhibitory activity against Breast cancer HS 578T cell line was determined; conditions: Homo sapiens
[33] = system: HOP-92; test: Growth inhibitory activity against non small cell lung cancer HOP-92 cell line was determined; conditions: Homo sapiens
[34] = system: OVCAR-8; test: Growth inhibitory activity against Ovarian cancer OVCAR-8 cell line was determined; conditions: Homo sapiens
[35] = system: PC-3; test: Growth inhibitory activity against Prostate cancer PC-3 cell line was determined; conditions: Homo sapiens
[36] = system: MCF7; test: Growth inhibitory activity against Breast cancer MCF-7 cell line was determined; conditions: Homo sapiens
[37] = system: NCI-H322M; test: Growth inhibitory activity against non small cell lung cancer NCI-H322M cell line was determined; conditions: Homo sapiens
[38] = system: LOX IMVI; test: Growth inhibitory activity against Melanoma LOX IMVI cell line; conditions: Homo sapiens
[39] = system: SF-268; test: In vitro percent of proliferation of vehicle treated SF-268 human CNS cell lines was determined at 0.0010 M concentration
[40] = system: NCI-H226; test: Growth inhibitory activity against non small cell lung cancer NCI-H226 cell line was determined; conditions: Homo sapiens
[41] = system: DU-145; test: Growth inhibitory activity against Prostate cancer DU-145 cell line was determined; conditions: Homo sapiens
[42] = system: SK-MEL-28; test: Growth inhibitory activity against Melanoma SK-MEL-28 cell line was determined; conditions: Homo sapiens
[43] = system: HT-29; test: Growth inhibitory activity against colon cancer HT-29 cell line was determined; conditions: Homo sapiens
[44] = system: OVCAR-3; test: Growth inhibitory activity against Ovarian cancer OVCAR-3 cell line was determined; conditions: Homo sapiens
[45] = system: NCI-H23; test: Growth inhibitory activity against non small cell lung cancer NCI-H23 cell line was determined; conditions: Homo sapiens
[46] = system: A549; test: Growth inhibitory activity against non small cell lung cancer A549/ATCC cells; conditions: Homo sapiens
[47] = system: MDA-MB-435; test: Growth inhibitory activity against Breast cancer MDA-MB-435 cell line was determined; conditions: Homo sapiens
[48] = system: HCC 2998; test: Growth inhibitory activity against colon cancer HCC2998 cell line was determined; conditions: Homo sapiens
[49] = system: UACC-62; test: Growth inhibitory activity against Melanoma UACC-62 cell line was determined; conditions: Homo sapiens
[50] = system: SK-OV-3; test: Growth inhibitory activity against Ovarian cancer SK-OV-3 cell line was determined; conditions: Homo sapiens
[51] = system: NCI-H460; test: In vitro percent of proliferation of vehicle treated NCI-H460 human lung cell lines was determined at 0.0010 M concentration
[52] = system: RPMI-8226; test: Growth inhibitory activity against Leukemia RPMI-8226 cell line was determined; conditions: Homo sapiens
[53] = system: UACC-257; test: Growth inhibitory activity against Melanoma UACC-257 cell line was determined; conditions: Homo sapiens
[54] = system: SN12C; test: Growth inhibitory activity against Renal cancer SN12C cell line was determined; conditions: Homo sapiens
[55] = system: NCI/ADR-RES; test: Growth inhibitory activity against Breast cancer NCI/ADR-RES cell line was determined; conditions: Homo sapiens
[56] = system: SW-620; test: Growth inhibitory activity against colon cancer SW-620 cell line was determined; conditions: Homo sapiens
[57] = system: CAKI-1; test: Growth inhibitory activity against Renal cancer CAKI-1 cell line […]; conditions: Homo sapiens
[58] = system: SNB-75; test: Growth inhibitory activity against CNS cancer SNB-75 cell line was determined; conditions: Homo sapiens

O=C(Oc1cccnc1)c1ccccc1Nc1ccnc(C(F)(F)F)c1
GI50 [1]: 490 nM | GI50 [2]: 10 nM | GI50 [3]: 520 nM | GI50 [4]: 390 nM | GI50 [5]: 330 nM | GI50 [6]: 460 nM | GI50 [7]: 260 nM | GI50 [8]: 10 nM | GI50 [9]: 290 nM | GI50 [10]: 30 nM | GI50 [11]: 10 nM | GI50 [12]: 390 nM | GI50 [13]: 340 nM | GI50 [14]: 30 nM | GI50 [15]: 340 nM | GI50 [16]: 40 nM | GI50 [17]: 30 nM | GI50 [18]: 140 nM | GI50 [19]: 30 nM | GI50 [20]: 520 nM | GI50 [21]: 310 nM | GI50 [22]: 50 nM | GI50 [23]: 270 nM | GI50 [24]: 60 nM | Proliferation [25]: 62% | GI50 [26]: 310 nM | GI50 [27]: 270 nM | GI50 [28]: 44000 nM | GI50 [29]: 10 nM | GI50 [30]: 170 nM | GI50 [31]: 410 nM | GI50 [32]: 570 nM | GI50 [33]: 480 nM | GI50 [34]: 690 nM | GI50 [35]: 420 nM | GI50 [36]: 160 nM | GI50 [37]: 2900 nM | GI50 [38]: 50 nM | Proliferation [39]: 75% | GI50 [40]: 510 nM | GI50 [41]: 220 nM | GI50 [42]: 660 nM | GI50 [43]: 50 nM | GI50 [44]: 140 nM | GI50 [45]: 60 nM | GI50 [46]: 720 nM | GI50 [47]: 60 nM | GI50 [48]: 360 nM | GI50 [49]: 350 nM | GI50 [50]: 250 nM | Proliferation [51]: 22% | GI50 [52]: 50 nM | GI50 [53]: 55000 nM | GI50 [54]: 410 nM | GI50 [55]: 80 nM | GI50 [56]: 60 nM

O=C(Oc1ccccc1Cl)c1ccccc1Nc1ccnc(C(F)(F)F)c1
GI50 [1]: 460 nM | GI50 [2]: 2700 nM | GI50 [3]: 270 nM | GI50 [4]: 320 nM | GI50 [5]: 7400 nM | GI50 [6]: 260 nM | GI50 [7]: 280 nM | GI50 [8]: 30 nM | GI50 [9]: 220 nM | GI50 [10]: 20 nM | GI50 [11]: 580 nM | GI50 [12]: 8600 nM | GI50 [14]: 1800 nM | GI50 [15]: 660 nM | GI50 [16]: 50 nM | GI50 [17]: 30 nM | GI50 [19]: 30 nM | GI50 [20]: 3900 nM | GI50 [21]: 330 nM | GI50 [23]: 250 nM | GI50 [24]: 220 nM | Proliferation [25]: 6% | GI50 [26]: 240 nM | GI50 [27]: 650 nM | GI50 [28]: 470 nM | GI50 [29]: 340 nM | GI50 [30]: 260 nM | GI50 [31]: 510 nM | GI50 [32]: 320 nM | GI50 [33]: 20 nM | GI50 [34]: 240 nM | GI50 [35]: 300 nM | GI50 [36]: 280 nM | GI50 [37]: 4800 nM | GI50 [38]: 20 nM | Proliferation [39]: 17% | GI50 [40]: 290 nM | GI50 [41]: 4300 nM | GI50 [43]: 390 nM | GI50 [44]: 220 nM | GI50 [45]: 250 nM | GI50 [46]: 730 nM | GI50 [47]: 130 nM | GI50 [57]: 290 nM | GI50 [48]: 2200 nM | GI50 [49]: 310 nM | GI50 [50]: 8000 nM | Proliferation [51]: 3% | GI50 [52]: 240 nM | GI50 [54]: 330 nM | GI50 [58]: 680 nM | GI50 [55]: 320 nM | GI50 [56]: 360 nM

CCOC(=O)CNC(=O)c1ccccc1Nc1ccnc(C(F)(F)F)c1
GI50 [1]: 26000 nM | GI50 [2]: 21000 nM | GI50 [3]: 18000 nM | GI50 [4]: 24000 nM | GI50 [5]: 30000 nM | GI50 [6]: 35000 nM | GI50 [7]: 34000 nM | GI50 [8]: 17000 nM | GI50 [9]: 29000 nM | GI50 [10]: 16000 nM | GI50 [11]: 28000 nM | GI50 [12]: 31000 nM | GI50 [13]: 19000 nM | GI50 [14]: 21000 nM | GI50 [15]: 20000 nM | GI50 [16]: 18000 nM | GI50 [17]: 2200 nM | GI50 [18]: 19000 nM | GI50 [19]: 25000 nM | GI50 [20]: 64000 nM | GI50 [21]: 27000 nM | GI50 [22]: 16000 nM | GI50 [23]: 29000 nM | GI50 [24]: 20000 nM | Proliferation [25]: 60% | GI50 [26]: 71000 nM | GI50 [27]: 37000 nM | GI50 [28]: 33000 nM | GI50 [29]: 36000 nM | GI50 [30]: 10000 nM | GI50 [31]: 22000 nM | GI50 [32]: 46000 nM | GI50 [33]: 50 nM | GI50 [34]: 26000 nM | GI50 [35]: 22000 nM | GI50 [36]: 25000 nM | GI50 [37]: 32000 nM | GI50 [38]: 17000 nM | Proliferation [39]: 59% | GI50 [40]: 100000 nM | GI50 [41]: 27000 nM | GI50 [42]: 23000 nM | GI50 [43]: 29000 nM | GI50 [44]: 24000 nM | GI50 [45]: 22000 nM | GI50 [46]: 29000 nM | GI50 [47]: 39000 nM | GI50 [48]: 71000 nM | GI50 [49]: 17000 nM | GI50 [50]: 29000 nM | Proliferation [51]: 19% | GI50 [52]: 11000 nM | GI50 [53]: 69000 nM | GI50 [54]: 24000 nM | GI50 [55]: 51000 nM | GI50 [56]: 20000 nM
